Measurements reported in US20260256794A1, “Oral Dynamine Formulations and Methods Therefor” (Ortho-Nutra, LLC, priority 2023, published 2026).

Test system: subjects
Experiment: Trail Making Test
Type: in vivo, human
Conditions: for Trail Making Test score, Mean: lower = faster
Experimental: The inventors have discovered various compositions and methods of improving various indices of neurological and neuroenergetic functions by administering 100 mg (once daily) dosages of DYNAMINE™ (dosage between 1.0 and 1.4 mg/kg) as described in the following:
All neuroenergetic tests as listed below were performed and data were collected after 0 and 4 days of assigned supplements (with acute effects also measured at day 4 over 180 minutes):
Trail Making Test: Day 0: Two blocks of three tests were completed. Each block of three tests was separated by 10 minutes. The median of each block was taken and then those two scores were averaged. This value was used in all statistical analysis. Day 4: Three tests were completed at four time points: after 0, 60, 120, and 180 minutes of taking dose #4. The median of the three tests at each time point was used in all statistical analysis.
The trail making test has at least two test conditions. In Condition A, a subject is asked to draw lines to connect circled numbers in a numerical sequence (e.g., 1-2-3, etc.) as rapidly in possible. In Condition B the subject is asked to draw lines to connect circled numbers and letters in an alternating numeric and alphabetic sequence (i.e., 1-A-2-B, etc.) as rapidly as possible. Although trail making tests are conceptually very simple, they are thought to reflect a wide variety of cognitive processes including attention, visual search and scanning, sequencing and shifting, psychomotor speed, abstraction, flexibility, ability to execute and modify a plan of action, and ability to maintain two trains of thought simultaneously.

SMILES: COc1nc2c(c(=O)n1C)n(C)c(=O)n2C [methylliberine, 2-methoxy-1,7,9-trimethylpurine-6,8-dione]
- Trail Making Test score, Mean (100 mg once daily, Day 4, 0 min after dose #4): 21.6
- Trail Making Test score, Mean (100 mg once daily, Day 4, 60 min after dose #4): 20.4
- Trail Making Test score, Mean (100 mg once daily, Day 4, 120 min after dose #4): 20.2
- Trail Making Test score, Mean (100 mg once daily, Day 4, 180 min after dose #4): 20.3
- improvement in TMT performance (4-days daily supplementation, Day 4 vs Day 0, p<0.001): +11.1%
- Trail Making Test score, Mean (Day 0 (before supplementation)): 24.3
